Experimental data as given in ChEMBL document CHEMBL4043168, “The design and SAR of a novel series of 2-aminopyridine based LRRK2 inhibitors” (Bioorg Med Chem Lett, 2017).

What was measured:
[1] = molecular target: Cyclin-dependent kinase 11B (Homo sapiens) (UniProt P21127); test: Inhibition of CDK11 labeling at conserved Lys2 (DLKPANILVMGEGPER) in human PBMC at 1 uM
[2] = molecular target: T1, Mitogen-activated protein kinase kinase kinase 5 (Homo sapiens) (UniProt Q99683); test: Inhibition of MAP3K5 conserved Lys1 (IAIKEIPER) in human PBMC at 1 uM
T1 sequence (whole entry): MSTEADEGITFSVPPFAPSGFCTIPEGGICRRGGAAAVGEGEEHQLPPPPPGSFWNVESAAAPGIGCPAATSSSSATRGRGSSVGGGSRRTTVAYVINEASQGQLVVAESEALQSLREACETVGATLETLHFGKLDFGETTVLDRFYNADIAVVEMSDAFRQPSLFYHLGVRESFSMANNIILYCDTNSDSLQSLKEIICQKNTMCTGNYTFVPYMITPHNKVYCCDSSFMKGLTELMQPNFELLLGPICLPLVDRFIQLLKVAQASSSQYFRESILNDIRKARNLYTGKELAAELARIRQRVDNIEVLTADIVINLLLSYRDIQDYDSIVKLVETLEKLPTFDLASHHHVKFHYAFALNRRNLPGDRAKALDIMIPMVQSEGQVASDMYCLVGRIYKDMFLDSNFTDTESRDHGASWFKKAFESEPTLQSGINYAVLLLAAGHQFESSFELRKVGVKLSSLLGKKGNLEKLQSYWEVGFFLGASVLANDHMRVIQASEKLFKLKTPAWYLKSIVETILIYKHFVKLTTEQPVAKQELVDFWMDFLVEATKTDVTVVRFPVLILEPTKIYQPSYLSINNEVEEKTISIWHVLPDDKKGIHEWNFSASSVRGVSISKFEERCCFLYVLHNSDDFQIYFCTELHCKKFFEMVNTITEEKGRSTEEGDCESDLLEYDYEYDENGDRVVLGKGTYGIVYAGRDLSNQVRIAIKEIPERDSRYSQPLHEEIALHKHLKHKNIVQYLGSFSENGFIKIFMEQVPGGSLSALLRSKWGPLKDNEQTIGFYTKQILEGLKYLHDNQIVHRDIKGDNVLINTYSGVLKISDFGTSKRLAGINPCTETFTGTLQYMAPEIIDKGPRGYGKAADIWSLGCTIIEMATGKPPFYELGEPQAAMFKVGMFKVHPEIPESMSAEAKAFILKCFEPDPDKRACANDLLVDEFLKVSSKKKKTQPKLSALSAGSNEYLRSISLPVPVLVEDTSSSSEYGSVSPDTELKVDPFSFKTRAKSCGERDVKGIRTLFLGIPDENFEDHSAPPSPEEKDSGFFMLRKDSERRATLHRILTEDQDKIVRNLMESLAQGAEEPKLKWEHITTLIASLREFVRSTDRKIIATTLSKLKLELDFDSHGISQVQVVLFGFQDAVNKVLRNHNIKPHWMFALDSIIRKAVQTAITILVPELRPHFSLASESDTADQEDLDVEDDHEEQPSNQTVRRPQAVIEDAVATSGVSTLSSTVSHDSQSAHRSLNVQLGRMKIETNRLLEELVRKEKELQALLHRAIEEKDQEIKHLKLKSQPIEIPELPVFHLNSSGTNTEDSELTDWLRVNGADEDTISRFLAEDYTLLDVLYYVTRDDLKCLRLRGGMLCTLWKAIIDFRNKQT

[3] = molecular target: Phosphatidylinositol 3-kinase catalytic subunit type 3 (Homo sapiens) (UniProt Q8NEB9); test: Inhibition of PIK3C3 ATP binding site (TEDGGKYPVIFKHGDDLR) in human PBMC at 1 uM
[4] = molecular target: T2, Phosphatidylinositol 4,5-bisphosphate 3-kinase catalytic subunit delta isoform (Homo sapiens) (UniProt O00329); test: Inhibition of PIK3CD ATP binding site (TKVNWLAHNVSKDNRQ) in human PBMC at 1 uM
T2 sequence (whole entry): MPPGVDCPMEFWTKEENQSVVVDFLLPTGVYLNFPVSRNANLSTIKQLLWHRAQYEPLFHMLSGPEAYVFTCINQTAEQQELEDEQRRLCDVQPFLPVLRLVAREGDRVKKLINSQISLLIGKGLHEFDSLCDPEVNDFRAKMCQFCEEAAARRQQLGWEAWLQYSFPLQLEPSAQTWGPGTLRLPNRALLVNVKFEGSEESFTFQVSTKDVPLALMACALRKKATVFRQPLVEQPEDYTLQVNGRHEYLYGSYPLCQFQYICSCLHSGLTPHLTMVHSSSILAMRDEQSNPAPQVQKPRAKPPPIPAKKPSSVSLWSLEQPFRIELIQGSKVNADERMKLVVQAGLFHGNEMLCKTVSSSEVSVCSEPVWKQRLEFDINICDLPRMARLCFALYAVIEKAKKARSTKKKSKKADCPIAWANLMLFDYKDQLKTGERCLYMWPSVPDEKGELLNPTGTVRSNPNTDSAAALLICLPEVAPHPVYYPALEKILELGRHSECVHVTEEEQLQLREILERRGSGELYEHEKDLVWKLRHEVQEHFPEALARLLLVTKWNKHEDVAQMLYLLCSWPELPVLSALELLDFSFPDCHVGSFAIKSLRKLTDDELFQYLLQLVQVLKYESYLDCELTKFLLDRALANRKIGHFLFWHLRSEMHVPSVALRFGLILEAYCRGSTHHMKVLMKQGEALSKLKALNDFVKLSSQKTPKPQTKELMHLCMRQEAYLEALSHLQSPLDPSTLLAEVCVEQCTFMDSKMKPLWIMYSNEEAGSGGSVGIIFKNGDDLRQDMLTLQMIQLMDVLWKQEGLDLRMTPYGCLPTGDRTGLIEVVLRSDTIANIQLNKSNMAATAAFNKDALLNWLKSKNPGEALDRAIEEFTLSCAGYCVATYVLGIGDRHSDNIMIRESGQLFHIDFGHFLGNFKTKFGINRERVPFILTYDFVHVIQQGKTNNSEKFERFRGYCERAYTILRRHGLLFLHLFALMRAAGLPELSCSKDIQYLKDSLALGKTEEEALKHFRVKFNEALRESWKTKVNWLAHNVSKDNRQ

[5] = molecular target: Tyrosine-protein kinase ABL1 (Homo sapiens) (UniProt P00519); test: Inhibition of ABL labeling at activation Loop (LMTGDTYTAHAGAKFPIK) in human PBMC at 0.1 uM
[6] = molecular target: Tyrosine-protein kinase HCK (Homo sapiens) (UniProt P08631); test: Inhibition of HCK activation Loop (EGAKFPIKWTAPEAINFGSFTIK) in human PBMC at 0.1 uM
Chain of Tyrosine-protein kinase HCK (Homo sapiens) (P08631 2-526 limits assumed): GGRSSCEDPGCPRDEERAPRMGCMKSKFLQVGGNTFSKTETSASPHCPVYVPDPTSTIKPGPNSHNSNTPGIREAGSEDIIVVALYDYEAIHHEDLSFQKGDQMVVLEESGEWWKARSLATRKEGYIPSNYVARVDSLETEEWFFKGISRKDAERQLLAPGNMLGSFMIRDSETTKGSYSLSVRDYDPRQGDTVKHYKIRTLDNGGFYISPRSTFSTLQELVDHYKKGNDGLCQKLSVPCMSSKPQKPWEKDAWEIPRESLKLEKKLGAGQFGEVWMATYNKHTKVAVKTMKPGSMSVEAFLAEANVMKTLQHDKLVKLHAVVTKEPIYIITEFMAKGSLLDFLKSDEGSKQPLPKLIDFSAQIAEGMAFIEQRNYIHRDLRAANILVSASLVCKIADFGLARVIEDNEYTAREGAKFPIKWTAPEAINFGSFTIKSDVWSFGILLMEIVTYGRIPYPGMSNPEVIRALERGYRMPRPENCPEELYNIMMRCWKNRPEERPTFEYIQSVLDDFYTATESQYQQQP

Chain of Tyrosine-protein kinase ABL1 (Homo sapiens) (P00519 whole entry): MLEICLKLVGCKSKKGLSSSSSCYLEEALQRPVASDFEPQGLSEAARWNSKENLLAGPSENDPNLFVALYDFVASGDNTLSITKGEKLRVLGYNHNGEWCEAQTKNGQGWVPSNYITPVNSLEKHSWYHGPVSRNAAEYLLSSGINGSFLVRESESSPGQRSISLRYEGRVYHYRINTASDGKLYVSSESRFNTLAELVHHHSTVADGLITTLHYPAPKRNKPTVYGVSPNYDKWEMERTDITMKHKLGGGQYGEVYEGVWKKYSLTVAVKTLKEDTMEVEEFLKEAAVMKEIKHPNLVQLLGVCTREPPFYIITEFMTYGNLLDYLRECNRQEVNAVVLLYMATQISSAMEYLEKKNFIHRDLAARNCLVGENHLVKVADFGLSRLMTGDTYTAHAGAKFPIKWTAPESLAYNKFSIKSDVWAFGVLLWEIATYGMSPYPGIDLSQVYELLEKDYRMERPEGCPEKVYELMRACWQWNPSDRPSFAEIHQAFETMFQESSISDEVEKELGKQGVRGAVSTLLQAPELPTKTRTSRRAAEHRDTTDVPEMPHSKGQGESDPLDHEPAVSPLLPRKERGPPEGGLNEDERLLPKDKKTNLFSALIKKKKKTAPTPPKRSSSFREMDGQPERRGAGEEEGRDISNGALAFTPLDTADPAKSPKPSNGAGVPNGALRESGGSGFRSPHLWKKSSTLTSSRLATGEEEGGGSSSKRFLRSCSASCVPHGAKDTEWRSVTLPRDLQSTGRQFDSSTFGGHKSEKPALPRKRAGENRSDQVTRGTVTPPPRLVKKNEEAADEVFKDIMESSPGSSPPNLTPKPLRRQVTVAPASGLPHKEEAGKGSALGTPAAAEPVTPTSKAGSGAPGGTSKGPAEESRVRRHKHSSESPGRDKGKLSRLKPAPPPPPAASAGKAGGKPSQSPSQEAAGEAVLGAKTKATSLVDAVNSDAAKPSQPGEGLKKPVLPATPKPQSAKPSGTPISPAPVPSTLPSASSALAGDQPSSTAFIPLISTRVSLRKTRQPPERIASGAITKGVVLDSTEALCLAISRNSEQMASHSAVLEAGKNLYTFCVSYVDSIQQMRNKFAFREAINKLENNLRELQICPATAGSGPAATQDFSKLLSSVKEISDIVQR
Chain of Phosphatidylinositol 3-kinase catalytic subunit type 3 (Homo sapiens) (Q8NEB9 whole entry, canonical isoform): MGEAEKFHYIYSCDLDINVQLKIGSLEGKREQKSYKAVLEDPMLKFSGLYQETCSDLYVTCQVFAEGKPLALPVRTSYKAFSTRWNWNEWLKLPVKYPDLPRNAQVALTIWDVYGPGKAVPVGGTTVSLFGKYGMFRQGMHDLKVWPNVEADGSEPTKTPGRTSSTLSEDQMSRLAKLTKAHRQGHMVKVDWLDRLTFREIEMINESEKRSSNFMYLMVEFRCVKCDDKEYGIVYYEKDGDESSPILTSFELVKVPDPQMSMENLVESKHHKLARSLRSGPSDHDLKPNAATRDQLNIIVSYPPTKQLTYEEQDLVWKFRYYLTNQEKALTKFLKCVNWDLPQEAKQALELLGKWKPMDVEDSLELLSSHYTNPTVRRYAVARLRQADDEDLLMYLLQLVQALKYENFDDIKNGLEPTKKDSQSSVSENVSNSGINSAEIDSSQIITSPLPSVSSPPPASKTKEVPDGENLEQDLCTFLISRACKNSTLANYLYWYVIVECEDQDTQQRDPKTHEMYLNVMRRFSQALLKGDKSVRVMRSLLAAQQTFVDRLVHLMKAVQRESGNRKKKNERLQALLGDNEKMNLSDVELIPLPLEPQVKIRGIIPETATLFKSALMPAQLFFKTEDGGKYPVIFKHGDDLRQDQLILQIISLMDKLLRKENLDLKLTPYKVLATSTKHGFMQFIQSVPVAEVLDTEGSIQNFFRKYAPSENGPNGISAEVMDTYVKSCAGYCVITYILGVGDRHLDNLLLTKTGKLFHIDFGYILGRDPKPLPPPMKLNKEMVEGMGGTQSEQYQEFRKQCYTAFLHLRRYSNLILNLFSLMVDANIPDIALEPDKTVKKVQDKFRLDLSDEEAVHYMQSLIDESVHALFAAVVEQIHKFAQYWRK
Chain of Cyclin-dependent kinase 11B (Homo sapiens) (P21127 whole entry): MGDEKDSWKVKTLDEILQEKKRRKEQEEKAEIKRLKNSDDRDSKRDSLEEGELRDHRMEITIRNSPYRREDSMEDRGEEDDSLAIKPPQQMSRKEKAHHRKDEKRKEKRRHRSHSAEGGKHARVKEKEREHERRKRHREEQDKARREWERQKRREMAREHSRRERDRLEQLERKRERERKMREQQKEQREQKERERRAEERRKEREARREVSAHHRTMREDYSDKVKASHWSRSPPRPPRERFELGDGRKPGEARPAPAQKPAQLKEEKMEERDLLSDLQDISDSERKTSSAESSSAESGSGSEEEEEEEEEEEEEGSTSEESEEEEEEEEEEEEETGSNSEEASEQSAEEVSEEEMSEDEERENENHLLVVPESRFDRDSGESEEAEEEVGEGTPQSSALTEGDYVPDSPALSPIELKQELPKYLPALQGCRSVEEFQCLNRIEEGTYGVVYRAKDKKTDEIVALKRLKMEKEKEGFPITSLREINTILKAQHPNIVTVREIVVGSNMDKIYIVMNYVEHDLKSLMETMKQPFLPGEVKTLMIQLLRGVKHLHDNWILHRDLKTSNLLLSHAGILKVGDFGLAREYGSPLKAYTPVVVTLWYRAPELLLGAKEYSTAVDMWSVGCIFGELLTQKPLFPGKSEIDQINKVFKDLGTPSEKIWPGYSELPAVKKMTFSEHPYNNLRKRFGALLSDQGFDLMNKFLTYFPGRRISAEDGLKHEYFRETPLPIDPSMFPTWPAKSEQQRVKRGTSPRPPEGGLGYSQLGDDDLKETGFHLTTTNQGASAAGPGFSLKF

## CC(C)n1cc(-c2cc(-c3ccc(CN4CCOCC4)cc3)cnc2N)nn1
[1]
  inhibition: 1.5%
[2]
  inhibition: -3.3%
[3]
  inhibition: 2.8%
[4]
  inhibition: 4%
[5]
  inhibition: -5.2%
[6]
  inhibition: -7.4%
